Measured values from patent US10478451B2, “Use of dextran sulfate” (TX Medic AB, priority 2015, dated 2019).
“Also recorded” adds a separate entry of the source.

How the values were obtained:
[1] = orally delivered; mice, rats, hamsters and guinea pigs; cited from earlier work
[2] = system: myocardial infarction induced interstitial fibrosis; assay: Anti-fibrosis effect in a rat model of myocardial infarction (interstitial fibrosis, Masson's Trichrome staining); format: in vivo
Text: The present study assessed the effect of dextran sulfate in inhibiting or reducing fibrosis in a rat model of myocardial infarction (MI).
The myocardial infarction model in rat involved ligations of the left coronary artery permanently with an intramural stitch. The surgery caused obstruction of the blood flow and subsequently to severe ischemic damage and cardiac walls infarct.
In total 120 female SD rats having an average body weight of 178 g at study initiation (Day 0) were obtained from Harlan Laboratories, Israel. Animals were fed ad libitum a commercial rodent diet (Teklad Certified Global 18% Protein Diet). Animals had free access to autoclaved and acidified drinking water (pH between 2.5 and 3.5) obtained from the municipality supply. Animals were housed under standard laboratory conditions, air conditioned and filtered (HEPA F6/6) with adequate fresh air supply (minimum air changes/hour). Animals were kept in a climate controlled environment with a temperatures range of 20-24° C. and RH range of 30-70% with 12 hours light and 12 hours dark cycle.
Dextran sulfate with an average molecular weight within a range of 5-7 kDa was dissolved in 0.9% NaCl (saline) (Teva Pharmaceutical Industries Ltd) to be injected subcutaneous at doses of 15 mg/kg or 3 mg/kg. […]
Masson's Trichrome Staining was used for fibrosis evaluation. […] The sections were visualized in a computer-imaging system and infarct size was marked and calculated using the ImageJ program. For each animal, five serial sections including one containing the ligature were analyzed and the mean value of all sections for each heart was treated as one value for statistical analysis. […]
Interstitial fibrosis in the marginal area of the infarct was estimated manually in heart sections stained with Masson's Trichrome Staining. The area of interstitial fibrosis was calculated as the percent of the total area of the left ventricle. For each rat five cross-sections were analyzed.

Dextran sulfate
induction of colitis and intestinal fibrosis [1]: known to induce colitis and intestinal fibrosis | interstitial fibrosis compared to vehicle control group 1M (in words) ([2]; group 2M: 15 mg/kg s.c., 3 times a week for 3 weeks, P<0.01, five weeks post-infarction): significant suppression of myocardial infarction induced interstitial fibrosis; also recorded: significantly decreased fibrosis | extent of interstitial fibrosis (area of interstitial fibrosis as percent of the total area of the left ventricle) ([2]; group 2M: 15 mg/kg s.c., 3 times a week for 3 weeks, female SD rats, margin zone of infarct, day 36 after MI, vehicle group 1M 22.7±1.9%): 11.9±0.9% | extent of interstitial fibrosis compared to vehicle control group 1M (in words) ([2]; groups 3M-5M: 15 mg/kg s.c. 3 times a week for 1 week, 15 mg/kg single dose, 3 mg/kg 3 times a week for 1 week, day 36 after MI): also lower in the other dextran sulfate treated groups 3M-5M, although the difference was not significant
